Laboratory results: PMC7377239, “Cardiovascular Effects of Polychlorinated Biphenyls and Their Major Metabolites” (Environmental Health Perspectives, 2020)
Where two headings read alike, the source gives them in different places.

Key:
[1] = test system: HUVECs; experiment: Tube formation (tubulogenesis) assay in HUVECs, 18 h; type: cell-based, human; details: Homo sapiens, HUVEC, 18 h, HUVECs tube formation; for activity at 0.01 µM: concentration 0.01 µM; for activity at 0.1 µM: concentration 0.10 µM; for activity at 1 µM: concentration 1.00 µM; for activity at 10 µM: concentration 10.00 µM; for activity at 100 µM: concentration 100.00 µM
Outline: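 HUVECs (passage 1–5) seeded on reduced-growth-factor basement membrane and exposed to compounds overnight at 37°C, 5% CO2, in 2× maintenance medium with 12.5 ng/mL VEGF; 0.5% DMSO vehicle. Calcein AM-stained tube networks imaged and analysed; vehicle-normalized readouts fit to four-parameter logistic, POD set at one SD of vehicle means.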

[2] = test system: iCell endothelial cells (human iPSC-derived ECs); experiment: High-content imaging cytotoxicity in iCell endothelial cells, 24 h; type: cell-based; details: Homo sapiens, Endothelial cell, iPSC-EC; for viability at 0.1 µM / activity at 0.1 µM: 0.10 µM; for minimal effective concentration: 100.00 = highest concentration tested
Outline: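 Readouts were vehicle-normalised and fitted to a four-parameter logistic model. POD was set at one SD beyond 0.5% DMSO control means, and 100 µM was assigned when no response was seen. Cells were monolayers of iCell endothelial cells imaged after 24 h compound exposure using nuclear, mitochondrial and calcein dyes.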

[3] = 0.00 µM = 100.00, read-out: huvec.mtl.18hr
[4] = 0.00 µM = 100.00, read-out: huvec.tlps.18hr
[5] = 0.00 µM = 100.00, read-out: huvec.tta.18hr
[6] = 0.00 µM = 100.00, read-out: huvec.ttl.18hr
[7] = 0.00 µM = 100.00, read-out: endo.cyto.24hr
[8] = 0.00 µM = 100.00, read-out: endo.mito.24hr
[9] = 0.00 µM = 100.00, read-out: endo.mitoint.24hr
[10] = 0.00 µM = 100.00, read-out: endo.nma.24hr
[11] = 0.00 µM = 100.00, read-out: endo.tc.24hrs

Work on Clc1cc(Cl)c(-c2cc(Cl)c(Cl)cc2Cl)cc1Cl [PCB153] yielded a minimal effective concentration ([1]; MAX 100.00, read-out: huvec.mtl.18hr POD) of 19.8 µM, a minimal effective concentration ([1]; MAX 100.00, read-out: huvec.tlps.18hr POD) of 61.8 µM and a minimal effective concentration ([1]; MAX 100.00, read-out: huvec.tta.18hr POD) of 8.87 µM. It also gave a minimal effective concentration ([1]; MAX 100.00, read-out: huvec.ttl.18hr POD) of 0.13 µM, an activity at 0.01 µM [1, 3] of 88.3% and an activity at 0.01 µM [1, 4] of 103%. It also gave an activity at 0.01 µM [1, 5] of 72.1%, an activity at 0.01 µM [1, 6] of 66.9% and an activity at 0.1 µM [1, 3] of 95.5%. The activity at 0.1 µM [1, 4] was 80.3%, the activity at 0.1 µM [1, 5] was 103% and the activity at 0.1 µM [1, 6] was 95.6%. It also gave an activity at 1 µM [1, 3] of 88.7%, an activity at 1 µM [1, 4] of 89.4% and an activity at 1 µM [1, 5] of 73.7%. It also gave an activity at 1 µM [1, 6] of 66.3%, an activity at 10 µM [1, 3] of 95.2% and an activity at 10 µM [1, 4] of 107%. For the same compound, the activity at 10 µM [1, 5] was 115%, the activity at 10 µM [1, 6] was 106% and the activity at 100 µM [1, 3] was 65.2%. It also gave an activity at 100 µM [1, 4] of 61%, an activity at 100 µM [1, 5] of 54.1% and an activity at 100 µM [1, 6] of 48%. The viability at 0.01 µM [2, 7] was 97.6%, the activity at 0.01 µM [2, 8] was 97.9% and the activity at 0.01 µM [2, 9] was 86%. The activity at 0.01 µM [2, 10] was 102%, the viability at 0.01 µM [2, 11] was 97.6% and the viability at 0.1 µM [2, 7] was 97.8%. It also gave an activity at 0.1 µM [2, 8] of 98.2%, an activity at 0.1 µM [2, 9] of 85.5% and an activity at 0.1 µM [2, 10] of 101%. For the same compound, the viability at 0.1 µM [2, 11] was 97.8%, the viability at 1 µM [2, 7] was 103% and the activity at 1 µM [2, 8] was 103%. The activity at 1 µM [2, 9] was 84.3%, the activity at 1 µM [2, 10] was 100% and the viability at 1 µM [2, 11] was 103%. It also gave a viability at 10 µM [2, 7] of 109%, an activity at 10 µM [2, 8] of 110% and an activity at 10 µM [2, 9] of 80.5%. For the same compound, the activity at 10 µM [2, 10] was 98%, the viability at 10 µM [2, 11] was 109% and the viability at 100 µM [2, 7] was 45.5%. For the same compound, the activity at 100 µM [2, 8] was 42%, the activity at 100 µM [2, 9] was 57.6% and the activity at 100 µM [2, 10] was 108%. It also gave a viability at 100 µM [2, 11] of 46.4%, a minimal effective concentration ([2]; read-out: endo.cyto.24hr POD) of 18.6 µM and a minimal effective concentration ([2]; read-out: endo.mito.24hr POD) of 18.6 µM. It also gave a minimal effective concentration ([2]; read-out: endo.mitoint.24hr POD) of 0.07 µM, a minimal effective concentration ([2]; read-out: endo.nma.24hr POD) of 62.5 µM and a minimal effective concentration ([2]; read-out: endo.tc.24hrs POD) of 49.2 µM.
